{"source": "patent US20120225031A1", "about": "“SPHINGOSINE-1-PHOSPHATE RECEPTOR AGONISTS IN THE TREATMENT OF DEMYELINATING DISORDERS” (priority 2002, published 2012)", "molecules": {"B1": {"name": "INFβ: Recombinant mouse interferon β (Calbiochem/Biosciences), dissolved in saline, given by intraperitoneal injection (protein, UniProt P01575 22-182, looked up)", "Interferon beta": "INYKQLQLQERTNIRKCQELLEQLNGKINLTYRADFKIPMEMTEKMQKSYTAFAIQEMLQNVFLVFRNNFSSTGWNETIVVRLLDELHQQTVFLKTVLEEKQEERLTWEMSSTALHLKSYYWRVQRYLKLMKYNSYAWMVVRAEIFRNFLIIRRLTRNFQN"}}, "key": {"[1]": {"test_system": "SJL/J mouse model of chronic progressive EAE", "assay": "SJL/J mouse model of chronic progressive EAE", "type": "in vivo", "experimental": "A.1 In Vivo: SJL/J Mouse Model of Chronic Progressive EAE\nThe disease course in this animal model shares some common features with SP- and PR-MS. Immunization: On day 0 female SJL/J mice are immunized (subcutaneous flank injection) with 200 μl inoculum containing 500 μg bovine myelin basic protein (MBP) emulsified in complete Freund's adjuvant (CFA). On day 9 mice are boosted by a second MBP injection and an additional intravenous adjuvant injection consisting of 200 ng B. pertussis toxin. A final Pertussis injection is given on day 11. […] This is followed by a recovery phase starting around day 25, during which time mice remain symptom-free for about 20 days. Subsequently, by days 45-47, approximately 50% of the animals go into the progressive phase of the disease. Therefore, therapeutic treatment with test compounds starts on day 21 when the disease is fully established and continues until day 70, unless stated otherwise. Recombinant mouse interferon β (INFβ Calbiochem/Biosciences) is dissolved in saline and given by intraperitoneal injection 3× per week. Compound (a), e.g. Compound A or B, is diluted in water and given p.o. 5× per week by gavage. Mice in the vehicle control group are MBP-immunized and treated with water.\nEach experimental group consists of 10 mice, which are examined daily for clinical EAE symptoms. Disease incidence and the day of EAE onset also are recorded. Clinical grades of EAE are assessed using a scale from 0 to 3. Any disease-related mortality which occurs after starting drug treatment is recorded with a maximum score of 3."}, "[2]": {"test_system": "Lewis rat model of EAE", "assay": "Lewis rat model of EAE, prophylactic treatment regimen", "type": "in vivo", "conditions": "combination with a mTOR inhibiter at similar doses, EAE induced by intradermal guinea pig neuroantigen"}, "[3]": {"assay": "Acute toxicity (LD50) in monkeys", "conditions": "monkey, in vivo, po"}, "[4]": {"test_system": "DA rat model of chronic-protracted EAE", "assay": "Optic neuritis in the DA rat model of chronic-protracted EAE", "type": "in vivo", "conditions": "for disease progression (clinical EAE): 0.3 mg/kg p.o. once a day for 2 weeks, therapeutic treatment from about day 12, compared to vehicle-treated controls; for development of EAE symptoms / disease-related weight loss: suboptimal dose <0.1 mg/kg p.o. combined with a mTOR inhibitor (<1 mg/kg p.o.), therapeutic dosing", "excerpt": "A.2 In Vivo: Optic Neuritis in the DA Rat Model of Chronic-Protracted EAE\nOcular pathologic manifestations such as optic neuritis (neuromyelitis optica) are frequent in multiple sclerosis and often precede or accompany plaque formation in the brain white matter. Ocular areas, especially the optic chiasma, also are important targets in demyelinating forms of EAE. In such EAE models, functional disability caused by demyelination of the optic nerve can be assessed by electrophysiological methods, such as visual evoked cortical potentials and electroretinogram, in conjunction with morphological analysis of the ocular tissue.\nImmunization: On day 0, female DA rats are immunized by a single intradermal injection at the tail base with 100-200 μl inoculum containing a recombinant encephalitogenic peptide, e.g. myelin oligodendrocyte glycoprotein, or a homogenate of syngeneic central nervous system tissue emulsified in one part CFA (volume:volume). Neurologic symptoms develop by 10 days post-immunization, and clinical grades of EAE are assessed using a scale of 0 to 4. Therapeutic treatment with the test compound starts when the disease is fully established, usually on day 12, and continues for 2 weeks."}, "[5]": {"assay": "Acute toxicity (LD50) in rats", "conditions": "rat, in vivo, po"}, "[6]": {"conditions": "0.6 mg/kg p.o. 5x per week in combination with INFβ (10 000 IU i.p. 3x per week), therapeutic treatment from day 21, days 45-75, compared to vehicle-treated controls"}}, "data": [{"molecule": "CCCCCCCCc1ccc(CCC(N)(CO)CO)cc1.Cl", "note": "[Compound A, 2-amino-2-[2-(4-octylphenyl)ethyl]propane-1,3-diol]", "values": [{"measurement": "disease progression (clinical EAE)", "setting": "[1]; [6]", "value": "prevents disease progression for one month"}, {"measurement": "disease onset", "setting": "[2]", "value": "prevent disease onset"}, {"measurement": "LD50", "setting": "[3]", "value": "> 10", "unit": "mg/kg"}, {"measurement": "disease progression (clinical EAE)", "setting": "[4]", "value": "prevents disease progression for at least 2 months"}, {"measurement": "development of EAE symptoms", "setting": "[4]", "value": "curtail development of EAE symptoms"}, {"measurement": "disease-related weight loss", "setting": "[4]", "value": "prevent disease-related weight loss"}, {"measurement": "LD50", "setting": "[5]", "value": "> 10", "unit": "mg/kg"}]}, {"molecule": "NC(CO)(CO)CCc1ccc(C(=O)CCCCc2ccccc2)cc1", "note": "[Compound B, 2-amino-2-{2-[4-(1-oxo-5-phenylpentyl)phenyl]ethyl}propane-1,3-diol]", "values": [{"measurement": "disease progression (clinical EAE)", "setting": "[1]; [6]", "value": "prevents disease progression for one month"}, {"measurement": "disease onset", "setting": "[2]", "value": "prevent disease onset"}, {"measurement": "disease progression (clinical EAE)", "setting": "[4]", "value": "prevents disease progression for at least 2 months"}, {"measurement": "development of EAE symptoms", "setting": "[4]", "value": "curtail development of EAE symptoms"}, {"measurement": "disease-related weight loss", "setting": "[4]", "value": "prevent disease-related weight loss"}]}, {"molecule": "B1", "values": [{"measurement": "disease progression (clinical EAE)", "setting": "[1]; INFβ alone, 10 000 IU 3x/week i.p., afterwards full EAE response indistinguishable from vehicle-treated controls by day 68 onwards", "value": "only marginally inhibits disease progression for about 1 week"}]}]}
